The source of these data is ChEMBL document CHEMBL3045127, “Esterase inhibition by synergists in the western flower thrips Frankliniella occidentalis” (Pest Manag Sci, 2011).

Test [1] concerns Frankliniella occidentalis. The experiment in a line: Insecticidal activity against Frankliniella occidentalis ACR (western flower thrips). The test is classed as functional, organism-based.
For test [2], the system named is Frankliniella occidentalis. The experiment in a line: Insecticidal activity against Frankliniella occidentalis MLFOM (western flower thrips). The test is classed as functional.
The test system of test [3] is Frankliniella occidentalis. In words: Resistance ratio, LC50 for Frankliniella occidentalis MLFOM (western flower thrips) to LC50 for Frankliniella occidentalis ACR. Type of test: functional.
Test [4] is described as follows: Inhibition of Frankliniella occidentalis FOR (western flower thrips) total esterase activity.
Test [5] can be described thus: Inhibition of Frankliniella occidentalis MET (western flower thrips) total esterase activity.
The nature of test [6]: Inhibition of Frankliniella occidentalis MLFOM (western flower thrips) total esterase activity.
Test [7] is described as follows: Inhibition of Frankliniella occidentalis ACR (western flower thrips) total esterase activity.
Test [8] has as its system Frankliniella occidentalis. In words: Insecticidal activity against Frankliniella occidentalis FOR (western flower thrips). Type of test: functional, organism-based.
The subject of test [9] is Frankliniella occidentalis. In words: Resistance ratio, LC50 for Frankliniella occidentalis MLFOM (western flower thrips) to LC50 for Frankliniella occidentalis FOR. The test is classed as functional.
The subject of test [10] is Frankliniella occidentalis. The experiment in a line: Resistance ratio, LC50 for Frankliniella occidentalis MLFOM (western flower thrips) to LC50 for Frankliniella occidentalis MET. The test is classed as functional.
In test [11] the test system is Frankliniella occidentalis. In words: Insecticidal activity against Frankliniella occidentalis MET (western flower thrips). The test is classed as functional.

With `CC1(C)[C@H](C(=O)O[C@H](C#N)c2cccc(Oc3ccccc3)c2)[C@@H]1/C=C\C(=O)OC(C(F)(F)F)C(F)(F)F` [ACRINATHRIN], the LC50 is recorded as 12870 mgAi/L in [1] and 9 mgAi/L in [2]. For the same molecule, in [3], the RatioLC50 was found to be 1430.
Turning to `CCCCOCCOCCOCc1cc2c(cc1CCC)OCO2` [PIPERONYL BUTOXIDE], the IC50 (commonly the concentration that inhibits the measured activity by half) worked out at 1910 µM in [4], 2160 µM in test [5], 2410 µM in [6] and 2670 µM in test [7].
On to `CNC(=O)Oc1cccc(/N=C/N(C)C)c1` [FORMETANATE], for which the LC50 in test [8] was determined as 20160 mgAi/L; in test [2], 765 mgAi/L. The RatioLC50 in test [9] was 26.
In the case of `CCCCSP(=O)(SCCCC)SCCCC` [S,S,S,-TRIBUTYLPHOSPHOROTRITHIOATE], the IC50 came to 0.51 µM in test [4], 0.52 µM in [5], 0.46 µM in test [6] and 0.45 µM in test [7].
`CNC(=O)Oc1cc(C)c(SC)c(C)c1` [METHIOCARB]: the IC50 in [8] (Frankliniella occidentalis, FOR) was found to be 2.93 µM; in [4], 2.93 µM; in test [1] (Frankliniella occidentalis, ACR), 2.71 µM; in [5], 1.98 µM; in test [6] it was 1.92 µM; in test [7] it was 2.71 µM. The RatioLC50 in [10] was found to be 41. Also, the LC50 was 15 mgAi/L in test [2] and 620 mgAi/L in test [11].
